Assay results as given in ChEMBL document CHEMBL5724914, “Linking interpersonal differences in gut microbiota composition and drug biotransformation activity” (2024).

Assays:
[1] = (§1) The drug is tested on Z-030 corresponding to mouse gut metagenome with ENA study accession number: PRJEB37062 and ENA sample accession number: ERS12561829 for biotransformation under anaerobic condition. The drug concentrations were measured over 9 timepoints collected between 0 and 24 hours of incubation by liquid-chromatography-coupled mass spectrometry (LC–MS); conditions: 2 µM
[2] = as §1, with “Z-023” for “Z-030”, “to” for “to mouse gut”, “ERS12561822” for “ERS12561829”; conditions: 2 µM
[3] = as §1, with “Z-017” for “Z-030”, “ERS12561816” for “ERS12561829”; conditions: 2 µM
[4] = as §1, with “Z-016” for “Z-030”, “ERS12561815” for “ERS12561829”; conditions: 2 µM
[5] = as §1, with “Z-009” for “Z-030”, “pig” for “mouse”, “ERS12561809” for “ERS12561829”; conditions: 2 µM
[6] = as §1, with “Z-008” for “Z-030”, “to” for “to mouse gut”, “ERS12561808” for “ERS12561829”; conditions: 2 µM
[7] = as §1, with “WLS-310” for “Z-030”, “human” for “mouse”, “ERS12561785” for “ERS12561829”; conditions: 2 µM
[8] = as §1, with “WLS-220” for “Z-030”, “human” for “mouse”, “ERS12561769” for “ERS12561829”; conditions: 2 µM
[9] = as §1, with “WLS-090” for “Z-030”, “human” for “mouse”, “ERS12561753” for “ERS12561829”; conditions: 2 µM
[10] = as §1, with “WLS-069” for “Z-030”, “human” for “mouse”, “ERS12561748” for “ERS12561829”; conditions: 2 µM
[11] = as §1, with “WLS-052” for “Z-030”, “human” for “mouse”, “ERS12561747” for “ERS12561829”; conditions: 2 µM
[12] = as §1, with “WLS-039” for “Z-030”, “human” for “mouse”, “ERS12561746” for “ERS12561829”; conditions: 2 µM
[13] = human gut metagenome, 24 h, 2 µM
[14] = human gut metagenome, 24 h, 2 µM; remark: listed apart in the source
[15] = human gut metagenome, 24 h, 2 µM; remark: listed apart in the source
[16] = human gut metagenome, 24 h, 2 µM; remark: listed apart in the source
[17] = human gut metagenome, 24 h, 2 µM; remark: listed apart in the source
[18] = human gut metagenome, 24 h, 2 µM; remark: listed apart in the source
[19] = human gut metagenome, 24 h, 2 µM; remark: listed apart in the source
[20] = human gut metagenome, 24 h, 2 µM; remark: listed apart in the source
Also: call rule not given here.

Row | SMILES | Bacterial Biotransformation [1] | Bacterial Biotransformation [2] | Bacterial Biotransformation [3] | Bacterial Biotransformation [4] | Bacterial Biotransformation [5] | Bacterial Biotransformation [6] | Bacterial Biotransformation [7] | Bacterial Biotransformation [8] | Bacterial Biotransformation [9] | Bacterial Biotransformation [10] | Bacterial Biotransformation [11] | Bacterial Biotransformation [12] | Bacterial Biotransformation [13] | Bacterial Biotransformation [14] | Bacterial Biotransformation [15] | Bacterial Biotransformation [16] | Bacterial Biotransformation [17] | Bacterial Biotransformation [18] | Bacterial Biotransformation [19] | Bacterial Biotransformation [20]
1 | CN(C)CC(c1ccc(O)cc1)C1(O)CCCCC1.O=C(O)CCC(=O)O (stereo not given) [DESVENLAFAXINE SUCCINATE] | Compound NOT metabolized | Compound NOT metabolized | Compound NOT metabolized | Compound NOT metabolized | Compound NOT metabolized | Compound NOT metabolized | Compound NOT metabolized | Compound NOT metabolized | Compound NOT metabolized | Compound NOT metabolized | Compound NOT metabolized | Compound NOT metabolized | Compound NOT metabolized | Compound NOT metabolized | Compound NOT metabolized | Compound NOT metabolized | Compound NOT metabolized | Compound NOT metabolized | Compound NOT metabolized | Compound NOT metabolized
2 | CN1CCN(C(=O)O[C@H]2c3nccnc3C(=O)N2c2ccc(Cl)cn2)CC1 [ESZOPICLONE] | Compound NOT metabolized | Compound NOT metabolized | Compound NOT metabolized | Compound NOT metabolized | Compound NOT metabolized | Compound NOT metabolized | Compound NOT metabolized | Compound NOT metabolized | Compound NOT metabolized | Compound NOT metabolized | Compound NOT metabolized | Compound NOT metabolized | Compound NOT metabolized | Compound NOT metabolized | Compound NOT metabolized | Compound NOT metabolized | Compound NOT metabolized | Compound NOT metabolized | Compound NOT metabolized | Compound NOT metabolized
3 | O=C1[C@H](CC[C@H](O)c2ccc(F)cc2)[C@@H](c2ccc(O)cc2)N1c1ccc(F)cc1 [EZETIMIBE] | Compound NOT metabolized | Compound metabolized | Compound NOT metabolized | Compound NOT metabolized | Compound NOT metabolized | Compound NOT metabolized | Compound NOT metabolized | Compound metabolized | Compound metabolized | Compound metabolized | Compound NOT metabolized | Compound NOT metabolized | Compound metabolized | Compound NOT metabolized | Compound NOT metabolized | Compound NOT metabolized | Compound NOT metabolized | Compound metabolized | Compound NOT metabolized | Compound metabolized
4 | CC(C)OC(=O)C(C)(C)Oc1ccc(C(=O)c2ccc(Cl)cc2)cc1 [FENOFIBRATE] | Compound metabolized | Compound metabolized | Compound metabolized | Compound metabolized | Compound metabolized | Compound metabolized | Compound metabolized | Compound metabolized | Compound metabolized | Compound NOT metabolized | Compound NOT metabolized | Compound NOT metabolized | Compound metabolized | Compound metabolized | Compound NOT metabolized | Compound NOT metabolized | Compound NOT metabolized | Compound NOT metabolized | Compound NOT metabolized | Compound metabolized
5 | O=C1NCC2(CCN(CCc3ccccc3)CC2)O1 [FENSPIRIDE] | Compound NOT metabolized | Compound NOT metabolized | Compound NOT metabolized | Compound NOT metabolized | Compound NOT metabolized | Compound NOT metabolized | Compound NOT metabolized | Compound NOT metabolized | Compound NOT metabolized | Compound NOT metabolized | Compound NOT metabolized | Compound NOT metabolized | Compound NOT metabolized | Compound NOT metabolized | Compound NOT metabolized | Compound NOT metabolized | Compound NOT metabolized | Compound NOT metabolized | Compound NOT metabolized | Compound NOT metabolized
6 | OC(Cn1cncn1)(Cn1cncn1)c1ccc(F)cc1F [FLUCONAZOLE] | Compound NOT metabolized | Compound metabolized | Compound NOT metabolized | Compound NOT metabolized | Compound NOT metabolized | Compound NOT metabolized | Compound metabolized | Compound NOT metabolized | Compound metabolized | Compound metabolized | Compound NOT metabolized | Compound NOT metabolized | Compound NOT metabolized | Compound NOT metabolized | Compound metabolized | Compound NOT metabolized | Compound metabolized | Compound metabolized | Compound NOT metabolized | Compound NOT metabolized
7 | CNCCC(Oc1ccc(C(F)(F)F)cc1)c1ccccc1 (stereo not given) [FLUOXETINE] | Compound NOT metabolized | Compound NOT metabolized | Compound NOT metabolized | Compound NOT metabolized | Compound NOT metabolized | Compound NOT metabolized | Compound NOT metabolized | Compound NOT metabolized | Compound NOT metabolized | Compound NOT metabolized | Compound NOT metabolized | Compound NOT metabolized | Compound NOT metabolized | Compound metabolized | Compound NOT metabolized | Compound NOT metabolized | Compound NOT metabolized | Compound metabolized | Compound NOT metabolized | Compound NOT metabolized
8 | O=C(CCCN1CCC(O)(c2ccc(Cl)cc2)CC1)c1ccc(F)cc1 [HALOPERIDOL] | Compound NOT metabolized | Compound metabolized | Compound NOT metabolized | Compound NOT metabolized | Compound metabolized | Compound NOT metabolized | Compound metabolized | Compound metabolized | Compound metabolized | Compound metabolized | Compound NOT metabolized | Compound metabolized | Compound NOT metabolized | Compound NOT metabolized | Compound NOT metabolized | Compound NOT metabolized | Compound metabolized | Compound NOT metabolized | Compound NOT metabolized | Compound NOT metabolized
